From patent US10816493B2, “Electrical measurement method, electrical measurement device, and blood condition analysis system” (SONY CORPORATION, priority 2015, dated 2020)

System: blood coagulation
Test: Permittivity measurement over time of blood samples with calcium chloride added (coagulation start-indicating parameter)
Type: cell-based
Method: Experimental Example 2 was performed to determine whether and how the results of measurement of an electrical characteristic differ between a case using a compound having an inhibitory effect on blood sedimentation and having no influence on the electrical characteristic parameter used for analysis and a case using a compound having an influence on the electrical characteristic parameter. In this experimental example, permittivity was used as an example of the electrical characteristic. In addition, a coagulation start-indicating parameter for use in blood coagulation analysis was focused on as an example of the electrical characteristic parameter for use in analysis. Furthermore, in Experimental Example 2, measurement was performed on blood samples containing citric acid added as an anticoagulant with calcium chloride added as a blood coagulation […].
Carboxymethyl dextran as an example of the blood sedimentation inhibitor was dissolved at a concentration of 10% w/v in PBS. The carboxymethyl dextran-containing PBS solution was added in an amount of 10% to a whole blood sample with a high blood sedimentation rate, so that a sample of Example 3 was obtained.
A control sample was prepared by adding a blood sedimentation inhibitor-free PBS in an amount of 10% to the same whole blood sample as in Example 3.
Betaine was dissolved at a concentration of 10% w/v in PBS. The resulting blood sedimentation inhibitor-containing PBS solution was added in an amount of 10% to a blood sample with sedimentation abnormalities, prepared by a method similar to that in Experimental Example 1, so that a sample of Comparative Example 3 was obtained.
A control sample was prepared by adding a blood sedimentation inhibitor-free PBS in an amount of 10% to a blood sample with sedimentation abnormalities, prepared by a method similar to that in Experimental Example 1.
The permittivity of 180 μL of each of the samples of Example 3, Control for Example, Comparative Example 3, and Control for Comparative Example, prepared as described above, was measured at a frequency of 1 MHz over time.

C[N+](C)(C)CC(=O)O [Comparative Example 3, Betaine]
analysis of blood coagulation start time using a parameter indicating the time at which coagulation started (10% w/v in PBS added in an amount of 10%, citric acid plus calcium chloride, permittivity at 1 MHz): impossible to extract any parameter indicating the coagulation start time
signal behavior compared with the control sample (10% w/v in PBS added in an amount of 10%, citric acid plus calcium chloride, permittivity at 1 MHz, FIGS. 6 and 7): completely different from that of the control sample
adverse effect on the analysis (usability as blood sedimentation inhibitor) (blood coagulation analysis based on permittivity): has an adverse effect on the analysis
inhibitory effect on blood sedimentation (in words) (suggested from results of Experimental Example 2): have an inhibitory effect on blood sedimentation
